According to patent US11912686B2 (Gilead Sciences, Inc., priority 2020, dated 2024):

What follows are molecules tested against human LPAR1 (Homo sapiens (Human), UniProt Q92633) (assay: LPAR1 intracellular calcium mobilization assay (antagonist mode, FLIPR)). Conditions: CHO-K1 EDG2 cells expressing human LPAR1, LPA 18:2 at EC80 (100 nM), test compound 0.5 nM to 10 μM.
Format: cell-based

human LPAR1, sequence (Q92633 whole entry): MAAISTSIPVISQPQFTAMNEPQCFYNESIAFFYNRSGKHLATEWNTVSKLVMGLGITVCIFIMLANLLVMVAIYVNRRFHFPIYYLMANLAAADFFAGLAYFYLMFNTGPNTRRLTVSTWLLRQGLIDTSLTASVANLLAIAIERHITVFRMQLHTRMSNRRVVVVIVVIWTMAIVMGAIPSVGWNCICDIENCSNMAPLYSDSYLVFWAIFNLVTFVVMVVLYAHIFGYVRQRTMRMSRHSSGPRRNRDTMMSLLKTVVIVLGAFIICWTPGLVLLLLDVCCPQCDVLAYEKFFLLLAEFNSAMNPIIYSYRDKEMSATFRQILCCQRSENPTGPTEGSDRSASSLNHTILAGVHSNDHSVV

| SMILES | EC50 [nM] |
| --- | --- |
| C[C@@H](OC(=O)Nc1c(-c2ccc(NC(=O)C3(C#N)CC34CCCC4)cn2)nnn1C)c1cccnc1Cl (stereo partly drawn) [Compound 89, (R)-1-(2-chloropyridin-3-yl)ethyl (4-(5-(1-cyanospiro[2.4]heptane-1-carboxamido)pyridin-2-yl)-1-methyl-1H-1,2,3-triazol-5-yl)carbamate] | 312 |
| C[C@@H](OC(=O)Nc1c(-c2ccc(NC(=O)[C@@H]3CCC3(F)F)cn2)nnn1C)c1cccnc1Cl [Compound 90, (R)-1-(2-chloropyridin-3-yl)ethyl (4-(5-((S)-2,2-difluorocyclobutane-1-carboxamido)pyridin-2-yl)-1-methyl-1H-1,2,3-triazol-5-yl)carbamate] | 73.5 |
| C[C@@H](OC(=O)Nc1c(-c2ccc(NC(=O)[C@H]3CCC3(F)F)cn2)nnn1C)c1cccnc1Cl [Compound 91, (R)-1-(2-chloropyridin-3-yl)ethyl (4-(5-((R)-2,2-difluorocyclobutane-1-carboxamido)pyridin-2-yl)-1-methyl-1H-1,2,3-triazol-5-yl)carbamate] | 187 |
| C[C@@H](OC(=O)Nc1c(-c2ccc(NC(=O)C3(C(N)=O)CC3)cn2)nnn1C)c1cccnc1Cl [Compound 92, (R)-1-(2-chloropyridin-3-yl)ethyl (4-(5-(1-carbamoylcyclopropane-1-carboxamido)pyridin-2-yl)-1-methyl-1H-1,2,3-triazol-5-yl)carbamate] | 601 |
| C[C@@H](OC(=O)Nc1c(-c2ccc(NC(=O)C3(C#N)COC3)cn2)nnn1C)c1cccnc1Cl [Compound 93, (R)-1-(2-chloropyridin-3-yl)ethyl (4-(5-(3-cyanooxetane-3-carboxamido)pyridin-2-yl)-1-methyl-1H-1,2,3-triazol-5-yl)carbamate] | 133 |
| C[C@@H](OC(=O)Nc1c(-c2ccc(NC(=O)C3(c4cccnc4)CC3)cn2)nnn1C)c1cccnc1Cl [Compound 94, (R)-1-(2-chloropyridin-3-yl)ethyl (1-methyl-4-(5-(1-(pyridin-3-yl)cyclopropane-1-carboxamido)pyridin-2-yl)-1H-1,2,3-triazol-5-yl)carbamate] | 4820 |
| C[C@@H](OC(=O)Nc1c(-c2ccc(NC(=O)C3(C#N)CCOCC3)cn2)nnn1C)c1cccnc1Cl [Compound 95, (R)-1-(2-chloropyridin-3-yl)ethyl (4-(5-(4-cyanotetrahydro-2H-pyran-4-carboxamido)pyridin-2-yl)-1-methyl-1H-1,2,3-triazol-5-yl)carbamate] | 309 |
| CCC1(C(=O)Nc2ccc(-c3nnn(C)c3NC(=O)O[C@H](C)c3cccnc3Cl)nc2)COC1 [Compound 96, (R)-1-(2-chloropyridin-3-yl)ethyl (4-(5-(3-ethyloxetane-3-carboxamido)pyridin-2-yl)-1-methyl-1H-1,2,3-triazol-5-yl)carbamate] | 2330 |
| C[C@@H](OC(=O)Nc1c(-c2ccc(NC(=O)C3(C)COC3)cn2)nnn1C)c1cccnc1Cl [Compound 97, (R)-1-(2-chloropyridin-3-yl)ethyl (1-methyl-4-(5-(3-methyloxetane-3-carboxamido)pyridin-2-yl)-1H-1,2,3-triazol-5-yl)carbamate] | 395 |
| C[C@@H](OC(=O)Nc1c(-c2ccc(NC(=O)c3cccc(C#N)n3)cn2)nnn1C)c1cccnc1Cl [Compound 98, (R)-1-(2-chloropyridin-3-yl)ethyl (4-(5-(6-cyanopicolinamido)pyridin-2-yl)-1-methyl-1H-1,2,3-triazol-5-yl)carbamate] | 720 |
| C[C@@H](OC(=O)Nc1c(-c2ccc(NC(=O)c3ccc(C#N)nc3)cn2)nnn1C)c1cccnc1Cl [Compound 99, (R)-1-(2-chloropyridin-3-yl)ethyl (4-(5-(6-cyanonicotinamido)pyridin-2-yl)-1-methyl-1H-1,2,3-triazol-5-yl)carbamate] | 53.9 |
| C[C@@H](OC(=O)Nc1c(-c2ccc(NC(=O)c3ccnc(C#N)c3)cn2)nnn1C)c1cccnc1Cl [Compound 100, (R)-1-(2-chloropyridin-3-yl)ethyl (4-(5-(2-cyanoisonicotinamido)pyridin-2-yl)-1-methyl-1H-1,2,3-triazol-5-yl)carbamate] | 90.8 |
| Cc1cnccc1C(=O)Nc1ccc(-c2nnn(C)c2NC(=O)O[C@H](C)c2cccnc2Cl)nc1 [Compound 101, (R)-1-(2-chloropyridin-3-yl)ethyl (1-methyl-4-(5-(3-methylisonicotinamido)pyridin-2-yl)-1H-1,2,3-triazol-5-yl)carbamate] | 1040 |
| Cc1cc(C(=O)Nc2ccc(-c3nnn(C)c3NC(=O)O[C@H](C)c3cccnc3Cl)nc2)ccn1 [Compound 102, (R)-1-(2-chloropyridin-3-yl)ethyl (1-methyl-4-(5-(2-methylisonicotinamido)pyridin-2-yl)-1H-1,2,3-triazol-5-yl)carbamate] | 85.6 |
| C[C@@H](OC(=O)Nc1c(-c2ccc(NC(=O)c3ccnc(Cl)c3)cn2)nnn1C)c1cccnc1Cl [Compound 103, (R)-1-(2-chloropyridin-3-yl)ethyl (4-(5-(2-chloroisonicotinamido)pyridin-2-yl)-1-methyl-1H-1,2,3-triazol-5-yl)carbamate] | 16.6 |
| C[C@@H](OC(=O)Nc1c(-c2ccc(NC(=O)C34COC(C3)C4)cn2)nnn1C)c1cccnc1Cl [Compound 104, (R)-1-(2-chloropyridin-3-yl)ethyl (4-(5-(2-oxabicyclo[2.1.1]hexane-4-carboxamido)pyridin-2-yl)-1-methyl-1H-1,2,3-triazol-5-yl)carbamate] | 560 |
| C[C@@H](OC(=O)Nc1c(-c2ccc(NC(=O)C34CC(CO3)C4)cn2)nnn1C)c1cccnc1Cl [Compound 105, (R)-1-(2-chloropyridin-3-yl)ethyl (4-(5-(2-oxabicyclo[2.1.1]hexane-1-carboxamido)pyridin-2-yl)-1-methyl-1H-1,2,3-triazol-5-yl)carbamate] | 1580 |
| C[C@@H](OC(=O)Nc1c(-c2ccc(NC(=O)c3c[nH]cn3)cn2)nnn1C)c1cccnc1Cl [Compound 106, (R)-1-(2-chloropyridin-3-yl)ethyl (4-(5-(1H-imidazole-4-carboxamido)pyridin-2-yl)-1-methyl-1H-1,2,3-triazol-5-yl)carbamate] | 1760 |
| C[C@@H](OC(=O)Nc1c(-c2ccc(NC(=O)CC(F)F)cn2)nnn1C)c1cccnc1Cl [Compound 107, (R)-1-(2-chloropyridin-3-yl)ethyl (4-(5-(3,3-difluoropropanamido)pyridin-2-yl)-1-methyl-1H-1,2,3-triazol-5-yl)carbamate] | 10000 |
| C[C@@H](OC(=O)Nc1c(-c2ccc(NC(=O)C3CC(C)(O)C3)cn2)nnn1C)c1cccnc1Cl (stereo partly drawn) [Compound 108, (R)-1-(2-chloropyridin-3-yl)ethyl (4-(5-(3-hydroxy-3-methylcyclobutane-1-carboxamido)pyridin-2-yl)-1-methyl-1H-1,2,3-triazol-5-yl)carbamate] | 420 |
| C[C@@H](OC(=O)Nc1c(-c2ccc(NC(=O)C3CC(C)(O)C3)cn2)nnn1C)c1cccnc1Cl (stereo partly drawn) [Compound 109, (R)-1-(2-chloropyridin-3-yl)ethyl (4-(5-(3-hydroxy-3-methylcyclobutane-1-carboxamido)pyridin-2-yl)-1-methyl-1H-1,2,3-triazol-5-yl)carbamate] | 1710 |
| C[C@@H](OC(=O)Nc1c(-c2ccc(NC(=O)C3(CF)CC3)cn2)nnn1C)c1cccnc1Cl [Compound 110, (R)-1-(2-chloropyridin-3-yl)ethyl (4-(5-(1-(fluoromethyl)cyclopropane-1-carboxamido)pyridin-2-yl)-1-methyl-1H-1,2,3-triazol-5-yl)carbamate] | 68.2 |
| C[C@@H](OC(=O)Nc1c(-c2ccc(NC(=O)C#CC(C)(C)O)cn2)nnn1C)c1cccnc1Cl [Compound 111, (R)-1-(2-chloropyridin-3-yl)ethyl (4-(5-(4-hydroxy-4-methylpent-2-ynamido)pyridin-2-yl)-1-methyl-1H-1,2,3-triazol-5-yl)carbamate] | 191 |
| C[C@@H](OC(=O)Nc1c(-c2ccc(NC(=O)c3cnn(C)c3)cn2)nnn1C)c1cccnc1Cl [Compound 112, (R)-1-(2-chloropyridin-3-yl)ethyl (1-methyl-4-(5-(1-methyl-1H-pyrazole-4-carboxamido)pyridin-2-yl)-1H-1,2,3-triazol-5-yl)carbamate] | 1400 |
| C[C@@H](OC(=O)Nc1c(-c2ccc(NC(=O)c3cn[nH]c3)cn2)nnn1C)c1cccnc1Cl [Compound 113, (R)-1-(2-chloropyridin-3-yl)ethyl (4-(5-(1H-pyrazole-4-carboxamido)pyridin-2-yl)-1-methyl-1H-1,2,3-triazol-5-yl)carbamate] | 775 |
| C[C@@H](OC(=O)Nc1c(-c2ccc(NC(=O)C34CCC(F)(CC3)CC4)cn2)nnn1C)c1cccnc1Cl [Compound 114, (R)-1-(2-chloropyridin-3-yl)ethyl (4-(5-(4-fluorobicyclo[2.2.2]octane-1-carboxamido)pyridin-2-yl)-1-methyl-1H-1,2,3-triazol-5-yl)carbamate] | 504 |
| C[C@@H](OC(=O)Nc1c(-c2ccc(NC(=O)C34CCC(O)(CC3)CC4)cn2)nnn1C)c1cccnc1Cl [Compound 115, (R)-1-(2-chloropyridin-3-yl)ethyl (4-(5-(4-hydroxybicyclo[2.2.2]octane-1-carboxamido)pyridin-2-yl)-1-methyl-1H-1,2,3-triazol-5-yl)carbamate] | 654 |
| C[C@@H](OC(=O)Nc1c(-c2ccc(NC(=O)C3(C(F)F)CC3)cn2)nnn1C)c1cccnc1Cl [Compound 116, (R)-1-(2-chloropyridin-3-yl)ethyl (4-(5-(1-(difluoromethyl)cyclopropane-1-carboxamido)pyridin-2-yl)-1-methyl-1H-1,2,3-triazol-5-yl)carbamate] | 322 |
| C[C@@H](OC(=O)Nc1c(-c2ccc(NC(=O)C34CC(O)(C3)C4)cn2)nnn1C)c1cccnc1Cl [Compound 117, (R)-1-(2-chloropyridin-3-yl)ethyl (4-(5-(3-hydroxybicyclo[1.1.1]pentane-1-carboxamido)pyridin-2-yl)-1-methyl-1H-1,2,3-triazol-5-yl)carbamate] | 1140 |
